Measured values taken from ChEMBL document CHEMBL1132008, “Isoxazoline GPIIb/IIIa antagonists bearing a phosphoramidate” (Bioorg Med Chem Lett, 1999).

What was measured:
[1] = target: T1, Integrin alpha-IIb/beta-3 (Homo sapiens, UniProt P05106+P08514); assay: Inhibition of fibrinogen (Fg) interaction with GPIIb/IIIa in gel filtered platelets; assay type: functional
[2] = target: T1, Integrin alpha-IIb/beta-3; assay: Affinity for purified human platelet glycoprotein alpha IIb beta3 integrin receptor in ELISA
[3] = Inhibition of platelet aggregation in citreated human platelet rich plasma (PRP)

T1 sequence (P05106 27-788 limits assumed): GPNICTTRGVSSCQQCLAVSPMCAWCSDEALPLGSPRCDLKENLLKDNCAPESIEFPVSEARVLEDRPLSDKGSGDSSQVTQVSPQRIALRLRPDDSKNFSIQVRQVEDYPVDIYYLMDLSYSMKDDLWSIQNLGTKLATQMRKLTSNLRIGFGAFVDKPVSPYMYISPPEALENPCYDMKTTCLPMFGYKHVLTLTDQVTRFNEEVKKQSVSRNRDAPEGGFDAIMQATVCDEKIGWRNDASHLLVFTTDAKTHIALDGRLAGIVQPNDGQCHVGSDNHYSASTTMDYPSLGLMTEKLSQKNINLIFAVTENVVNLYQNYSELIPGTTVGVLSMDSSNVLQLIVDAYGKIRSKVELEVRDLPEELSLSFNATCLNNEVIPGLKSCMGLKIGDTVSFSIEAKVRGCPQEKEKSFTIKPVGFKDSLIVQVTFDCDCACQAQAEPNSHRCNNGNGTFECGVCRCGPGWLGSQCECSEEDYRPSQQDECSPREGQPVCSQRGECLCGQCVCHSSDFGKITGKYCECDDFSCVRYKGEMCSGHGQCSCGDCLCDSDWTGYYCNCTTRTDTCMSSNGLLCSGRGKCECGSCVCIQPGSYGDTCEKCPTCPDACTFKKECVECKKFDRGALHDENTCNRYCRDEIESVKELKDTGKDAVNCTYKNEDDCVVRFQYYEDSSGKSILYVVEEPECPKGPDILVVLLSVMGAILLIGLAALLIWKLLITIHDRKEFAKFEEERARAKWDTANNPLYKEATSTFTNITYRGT
T1 sequence (P08514 32-887 limits assumed): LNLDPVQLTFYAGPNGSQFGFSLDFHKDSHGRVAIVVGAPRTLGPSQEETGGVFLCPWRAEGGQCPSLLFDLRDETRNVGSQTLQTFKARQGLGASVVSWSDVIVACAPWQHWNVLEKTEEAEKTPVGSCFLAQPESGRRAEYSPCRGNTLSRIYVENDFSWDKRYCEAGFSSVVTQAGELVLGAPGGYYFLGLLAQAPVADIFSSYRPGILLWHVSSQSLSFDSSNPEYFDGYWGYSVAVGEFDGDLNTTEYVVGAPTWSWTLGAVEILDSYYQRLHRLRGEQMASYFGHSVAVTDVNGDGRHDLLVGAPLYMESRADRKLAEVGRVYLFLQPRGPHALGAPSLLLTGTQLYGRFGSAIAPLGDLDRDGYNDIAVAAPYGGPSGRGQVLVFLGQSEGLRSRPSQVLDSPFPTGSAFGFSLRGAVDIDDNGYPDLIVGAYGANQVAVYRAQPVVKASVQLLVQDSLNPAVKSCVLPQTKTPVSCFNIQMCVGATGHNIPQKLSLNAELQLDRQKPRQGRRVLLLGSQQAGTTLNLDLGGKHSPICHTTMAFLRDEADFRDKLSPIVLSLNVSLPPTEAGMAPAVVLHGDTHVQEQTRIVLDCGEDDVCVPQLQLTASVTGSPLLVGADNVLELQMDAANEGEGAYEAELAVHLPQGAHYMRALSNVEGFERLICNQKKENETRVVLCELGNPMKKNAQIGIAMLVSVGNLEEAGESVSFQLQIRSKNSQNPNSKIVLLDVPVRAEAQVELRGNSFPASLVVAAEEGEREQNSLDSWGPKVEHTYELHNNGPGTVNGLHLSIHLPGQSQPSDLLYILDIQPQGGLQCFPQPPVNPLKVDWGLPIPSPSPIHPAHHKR
T1 sequence (P08514 891-1039 limits assumed): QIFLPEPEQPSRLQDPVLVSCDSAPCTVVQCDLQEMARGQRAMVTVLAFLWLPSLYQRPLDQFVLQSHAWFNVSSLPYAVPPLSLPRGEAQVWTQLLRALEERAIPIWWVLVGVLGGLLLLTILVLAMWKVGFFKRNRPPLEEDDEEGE

Row | SMILES | IC50 [1] [nM] | IC50 [2] [nM] | IC50 [3] [nM]
1 | C=CCOP(=O)(NC(CNC(=O)CC1CC(c2ccc(C(=N)N)cc2)=NO1)C(=O)O)OCC=C (stereo not given) | 46 | 1.5 | –
2 | CC(C)OP(=O)(NC(CNC(=O)CC1CC(c2ccc(C(=N)N)cc2)=NO1)C(=O)O)OC(C)C (stereo not given) | 73 | 0.86 | –
3 | CCCCOC(=O)N[C@@H](CNC(=O)C[C@H]1CC(c2ccc(C(=N)N)cc2)=NO1)C(=O)O | 21 | – | 50
4 | N=C(N)c1ccc(C2=NOC(CC(=O)NCC(NP(=O)(O)O)C(=O)O)C2)cc1 (stereo not given) | 229 | 2.6 | –
5 | CCOP(=O)(NC(CNC(=O)CC1CC(c2ccc(C(=N)N)cc2)=NO1)C(=O)O)OCC (stereo not given) | 102 | 1.7 | –
6 | COP(=O)(NC(CNC(=O)CC1CC(c2ccc(C(=N)N)cc2)=NO1)C(=O)O)OC (stereo not given) | 54 | 0.55 | –
7 | N=C(N)c1ccc(C2=NOC(CC(=O)NCCC(=O)O)C2)cc1 (stereo not given) | 140 | – | –
8 | CCCCOP(=O)(NC(CNC(=O)CC1CC(c2ccc(C(=N)N)cc2)=NO1)C(=O)O)OCCCC (stereo not given) | 55 | 1.2 | –
